Experimental data taken from PMC12028158, “Synthesis and In Vitro Evaluation of the Anticancer Effect of Novel Phosphonium Vindoline Derivatives” (International Journal of Molecular Sciences, 2025).
Read-outs that look alike come from different tables or passages of the source.

Columns and labels:
Format in all cases: cell-based
Prostate Cancer panel = assay: NCI60 five-dose screen, panel mean; settings: Homo sapiens, read-out: GI50 Mean
HCT-116 = assay: NCI60 one-dose screen; settings: Homo sapiens
CCRF-CEM = assay: NCI60 five-dose screen; settings: Homo sapiens
SNB-19 = assay: NCI60 five-dose screen; settings: Homo sapiens
HS 578T = assay: NCI60 five-dose screen; settings: Homo sapiens
HL-60(TB) = assay: NCI60 one-dose screen; settings: Homo sapiens
CNS Cancer panel = assay: NCI60 five-dose screen, panel mean; settings: Homo sapiens, read-out: GI50 Mean
MDA-MB-231/ATCC = assay: NCI60 one-dose screen; settings: Homo sapiens
SF-295 = assay: NCI60 one-dose screen; settings: Homo sapiens
OVCAR-5 = assay: NCI60 five-dose screen; settings: Homo sapiens
SN12C = assay: NCI60 five-dose screen; settings: Homo sapiens
NCI-H322M = assay: NCI60 five-dose screen; settings: Homo sapiens
HCC-2998 = assay: NCI60 one-dose screen; settings: Homo sapiens
ACHN = assay: NCI60 five-dose screen; settings: Homo sapiens
[1] = system: 60 human tumor cell lines (NCI60); assay: NCI60 five-dose screen, overall mean
BT-549 = assay: NCI60 one-dose screen; settings: Homo sapiens
T-47D = assay: NCI60 five-dose screen; settings: Homo sapiens, T47D
OVCAR-8 = assay: NCI60 five-dose screen; settings: Homo sapiens
DU-145 = assay: NCI60 five-dose screen; settings: Homo sapiens
SW-620 [2] = assay: NCI60 five-dose screen; settings: Homo sapiens
COLO 205 = assay: NCI60 one-dose screen; settings: Homo sapiens
SF-268 = assay: NCI60 five-dose screen; settings: Homo sapiens
MDA-MB-468 = assay: NCI60 one-dose screen; settings: Homo sapiens
M14 = assay: NCI60 five-dose screen; settings: Homo sapiens
[3] = system: 60 human tumor cell lines (NCI60); assay: NCI60 one-dose screen, overall mean; settings: for activity at 10 µM: Homo sapiens, read-out: Mean growth percent
SR = assay: NCI60 five-dose screen; settings: Homo sapiens
SW-620 [4] = assay: NCI60 one-dose screen; settings: Homo sapiens
NCI/ADR-RES = assay: NCI60 one-dose screen; settings: Homo sapiens, read-out: Growth percent
MDA-MB-435 = assay: NCI60 one-dose screen; settings: Homo sapiens
HOP-62 = assay: NCI60 one-dose screen; settings: Homo sapiens
NCI-H226 = assay: NCI60 five-dose screen; settings: Homo sapiens
RXF 393 = assay: NCI60 one-dose screen; settings: Homo sapiens
NCI-H23 = assay: NCI60 five-dose screen; settings: Homo sapiens
SK-MEL-2 = assay: NCI60 five-dose screen; settings: Homo sapiens, SK-MEL-2, SK-MEL-2, Melanoma; read-out: GI50
SNB-75 = assay: NCI60 five-dose screen; settings: Homo sapiens; SNB-75, CNS Cancer; read-out: GI50
UO-31 = assay: NCI60 five-dose screen; settings: Homo sapiens; UO-31, Renal Cancer; read-out: GI50
MDA-MB231ATCC = assay: NCI60 five-dose screen; settings: Homo sapiens, MDA-MB-231; MDA-MB231ATCC, Breast Cancer; read-out: GI50
[5] = mean over Prostate Cancer panel
[6] = HCT-116, 10 μM, one-dose, read-out: Growth percent
[7] = SNB-19, SNB-19, CNS Cancer, read-out: GI50
[8] = HS 578T, Breast Cancer, read-out: GI50
[9] = MDA-MB-231/ATCC, 10 μM, one-dose, read-out: Growth percent
[10] = SF-295, 10 μM, one-dose, read-out: Growth percent
[11] = OVCAR-5, Ovarian Cancer, read-out: GI50
[12] = Non-small Cell Lung Cancer, read-out: GI50
[13] = HCC-2998, 10 μM, one-dose, read-out: Growth percent
[14] = mean over all 60 human cancer cell lines, read-out: GI50 Mean
[15] = BT-549, 10 μM, one-dose, read-out: Growth percent
[16] = T-47D, Breast Cancer, read-out: GI50
[17] = OVCAR-8, Ovarian Cancer, read-out: GI50
[18] = DU-145, Prostate Cancer, read-out: GI50
[19] = SW-620, Colon Cancer, read-out: GI50
[20] = COLO 205, 10 μM, one-dose, read-out: Growth percent
[21] = SF-268, CNS Cancer, read-out: GI50
[22] = MDA-MB-468, 10 μM, one-dose, read-out: Growth percent
[23] = mean over 60 cell lines, 10 μM, one-dose
[24] = SW-620, 10 μM, one-dose, read-out: Growth percent
[25] = MDA-MB-435, 10 μM, one-dose, read-out: Growth percent
[26] = HOP-62, 10 μM, one-dose, read-out: Growth percent
[27] = NCI-H226, Non-small Cell Lung Cancer, read-out: GI50
[28] = RXF 393, 10 μM, one-dose, read-out: Growth percent
[29] = NCI-H23, Non-small Cell Lung Cancer, read-out: GI50
[30] = HL-60, read-out: Growth percent

`CC[C@]12C=CCN3CC[C@@]4(c5ccc(OC)cc5N(C)[C@H]4[C@@](O)(C(=O)OC)[C@@H]1OC(=O)CCCC[P+](c1ccc(F)cc1)(c1ccc(F)cc1)c1ccc(F)cc1)[C@@H]32` [10c] gave a GI50 (Prostate Cancer panel; [5]) of 25.9 µM, an activity at 10 µM (HCT-116; [6]) of 23.4% and a GI50 (CCRF-CEM; Leukemia, read-out: GI50) of 13.6 µM. The GI50 (SNB-19; [7]) was 13 µM, the GI50 (HS 578T; [8]) was 16.9 µM and the activity at 10 µM (HL-60(TB); HL-60(TB), 10 μM, one-dose, read-out: Growth percent) was -32.2%. It also gave a GI50 (CNS Cancer panel; mean over CNS Cancer panel) of 18.8 µM, an activity at 10 µM (MDA-MB-231/ATCC; [9]) of 2.85% and an activity at 10 µM (SF-295; [10]) of 78.5%. For the same molecule, the GI50 (OVCAR-5; [11]) was 29.1 µM, the GI50 (SN12C; Renal Cancer, read-out: GI50) was 28.6 µM and the GI50 (NCI-H322M; [12]) was 50 µM. The activity at 10 µM (HCC-2998; [13]) was 19.4%, the GI50 (ACHN; Renal Cancer, read-out: GI50) was > 100 µM and the GI50 [1, 14] was 24.9 µM. It also gave an activity at 10 µM (BT-549; [15]) of -23.5%, a GI50 (T-47D; [16]) of 11.5 µM and a GI50 (OVCAR-8; [17]) of 29.4 µM. It also gave a GI50 (DU-145; [18]) of 35.4 µM, a GI50 (SW-620 [2]; [19]) of 16.5 µM and an activity at 10 µM (COLO 205; [20]) of -43.4%. For the same molecule, the GI50 (SF-268; [21]) was 17.6 µM, the activity at 10 µM (MDA-MB-468; [22]) was -74.6% and the GI50 (M14; M14, Melanoma, read-out: GI50) was 14.7 µM. The activity at 10 µM [3, 23] was 17%, the GI50 (SR; Leukemia, read-out: GI50) was 14.5 µM and the activity at 10 µM (SW-620 [4]; [24]) was 36.9%. The activity at 10 µM (NCI/ADR-RES; 10 μM, one-dose) was 105%, the activity at 10 µM (MDA-MB-435; [25]) was -16% and the activity at 10 µM (HOP-62; [26]) was 51%. The GI50 (NCI-H226; [27]) was 27.3 µM, the activity at 10 µM (RXF 393; [28]) was -9.93% and the GI50 (NCI-H23; [29]) was 20.1 µM.
Work on `CC[C@]12C=CCN3CC[C@@]4(c5ccc(OC)cc5N(C)[C@H]4[C@@](O)(C(=O)OC)[C@@H]1OC(=O)CCCC[P+](C1CCCCC1)(C1CCCCC1)C1CCCCC1)[C@@H]32` [10d] yielded a GI50 (Prostate Cancer panel) of 2.56 µM, an activity at 10 µM (HCT-116; HCT-116, read-out: Growth percent) of 4.69% and a GI50 (CCRF-CEM) of 2.55 µM. For the same molecule, the GI50 (SNB-19; SNB-19) was 1.92 µM, the GI50 (HS 578T; Hs-578T) was 2.61 µM and the activity at 10 µM (HL-60(TB); [30]) was -36.7%. For the same molecule, the GI50 (CNS Cancer panel) was 2.6 µM, the activity at 10 µM (MDA-MB-231/ATCC; MDA-MB-231, read-out: Growth percent) was -92.8% and the activity at 10 µM (SF-295; SF-295, read-out: Growth percent) was -19.6%. For the same molecule, the GI50 (OVCAR-5; OVCAR-5) was 3.19 µM, the GI50 (SN12C) was 2.77 µM and the GI50 (NCI-H322M) was 5.3 µM. It also gave an activity at 10 µM (HCC-2998; HCC 2998, read-out: Growth percent) of -87.8%, a GI50 (ACHN) of 16 µM and a GI50 ([1]; read-out: GI50 Mean, mean over all 60 human cancer cell lines) of 4.29 µM. The activity at 10 µM (BT-549; BT-549, read-out: Growth percent) was -97.4%, the GI50 (T-47D) was 0.92 µM and the GI50 (OVCAR-8; OVCAR-8) was 2.93 µM. The GI50 (DU-145; DU-145) was 3.65 µM, the GI50 (SW-620 [2]; SW-620) was 2.75 µM and the activity at 10 µM (COLO 205; COLO 205, read-out: Growth percent) was -76.6%. The GI50 (SF-268; SF-268) was 3.17 µM, the activity at 10 µM (MDA-MB-468; MDA-MB-468, read-out: Growth percent) was -79% and the GI50 (M14; M14) was 2.2 µM. For the same molecule, the activity at 10 µM ([3]; 60 cell) was -36.6%, the GI50 (SR) was 1.39 µM and the activity at 10 µM (SW-620 [4]; SW-620, read-out: Growth percent) was 2.08%. The activity at 10 µM (NCI/ADR-RES) was 96.7%, the activity at 10 µM (MDA-MB-435; MDA-MB-435, read-out: Growth percent) was -90.5% and the activity at 10 µM (HOP-62; HOP-62, read-out: Growth percent) was 9.52%. It also gave a GI50 (NCI-H226; NCI-H226) of 4.41 µM, an activity at 10 µM (RXF 393; RXF 393, read-out: Growth percent) of -73.8% and a GI50 (NCI-H23; NCI-H23) of 2.34 µM.
Work on `CCC12C=CCN3CCC4(c5ccc(OC)cc5N(C)C4C(O)(C(=O)OC)C1OC(=O)c1ccc(C[P+](c4ccccc4)(c4ccccc4)c4ccccc4)cc1)C32` (stereo not drawn) [compound 12] yielded a GI50 (Prostate Cancer panel; [5]) of 1.13 µM, an activity at 10 µM (HCT-116; [6]) of -62.8% and a GI50 (CCRF-CEM; Leukemia, read-out: GI50) of 1.3 µM. The GI50 (SK-MEL-2) was 1.27 µM, the GI50 (SNB-19; [7]) was 0.725 µM and the GI50 (HS 578T; [8]) was 1.27 µM. The activity at 10 µM (HL-60(TB); [30]) was -69%, the GI50 (CNS Cancer panel; mean over CNS Cancer panel) was 1.32 µM and the activity at 10 µM (MDA-MB-231/ATCC; [9]) was -91.5%. It also gave an activity at 10 µM (SF-295; [10]) of 5.9%, a GI50 (OVCAR-5; [11]) of 1.99 µM and a GI50 (SNB-75) of 1.11 µM. The GI50 (SN12C; Renal Cancer, read-out: GI50) was 0.708 µM, the GI50 (NCI-H322M; [12]) was 4.76 µM and the activity at 10 µM (HCC-2998; [13]) was -74.6%. It also gave a GI50 (ACHN; Renal Cancer, read-out: GI50) of 18.5 µM, a GI50 [1, 14] of 4.33 µM and an activity at 10 µM (BT-549; [15]) of -89.1%. The GI50 (T-47D; [16]) was 0.525 µM, the GI50 (OVCAR-8; [17]) was 3.18 µM and the GI50 (DU-145; [18]) was 1.61 µM. It also gave a GI50 (SW-620 [2]; [19]) of 1.5 µM, an activity at 10 µM (COLO 205; [20]) of -87.2% and a GI50 (SF-268; [21]) of 1.28 µM. It also gave an activity at 10 µM (MDA-MB-468; [22]) of -49.2%, a GI50 (UO-31) of 20 µM and a GI50 (M14; M14, Melanoma, read-out: GI50) of 1.35 µM. The activity at 10 µM [3, 23] was -37.1%, the “cytotoxicity (in words)” value ([3]; one-dose, 10 µM) was “moderate cytotoxicity” and the activity at 10 µM (SW-620 [4]; [24]) was -66%. It also gave a GI50 (MDA-MB231ATCC) of 0.686 µM, an activity at 10 µM (MDA-MB-435; [25]) of -88.8% and an activity at 10 µM (HOP-62; [26]) of -32.7%. For the same molecule, the GI50 (NCI-H226; [27]) was 1.54 µM, the activity at 10 µM (RXF 393; [28]) was -61.8% and the GI50 (NCI-H23; [29]) was 2.81 µM.
